# Laboratory results published in ChEMBL document CHEMBL3632573, “Triazine as a promising scaffold for its versatile biological behavior” (Eur J Med Chem, 2015).
# Biological target: Histone deacetylase
# Experiment: Inhibition of HDAC (unknown origin)
# Type: protein assay, Homo sapiens
smiles,measurement,value
Nc1nc(NCc2ccc(C(=O)Nc3ccccc3N)cc2)nc(NC2CCCC2)n1,IC50,< 0.2 µM
